Results reported in US9833497B2, “Human originated EGF domain proteins and use of the same” (CHENGDU SOURCEBIO LIMITED-LIABILITY COMPANY, priority 2013, dated 2017).

Key:
Assay type in all cases: cell-based
[1] = system: Enterobacter cloacae; test: MIC against Gram-negative bacteria: Enterobacter cloacae; conditions: for MIC against E. cloacae: 96-well plate, 37° C., 10 h; for MIC: E. cloacae
Outline: (§1)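 Antibacterial activity of purified human EGF domain proteins: two-fold concentration series, triplicate wells, LB broth, 5×10^5 CFU/mL bacteria, 37° C shaking incubation. The lowest concentration without growth defines the MIC.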

[2] = system: Proteus mirabilis; test: MIC against Gram-negative bacteria: Proteus mirabilis; conditions: for MIC against P. mirabilis: 96-well plate, 37° C., 10 h; for MIC: P. mirabilis
Outline: as §1

[3] = system: Aeromonas hydrophila; test: MIC against Gram-negative bacteria: Aeromonas hydrophila; conditions: for MIC against A. hydrophila: 96-well plate, 37° C., 10 h; for MIC: A. hydrophila
Outline: as §1

[4] = system: Serratia marcescens; test: MIC against Gram-negative bacteria: Serratia marcescens; conditions: for MIC against S. marcescens: 96-well plate, 37° C., 10 h; for MIC: S. marcescens
Outline: as §1

[5] = system: Moraxella catarrhalis; test: MIC against Gram-negative bacteria: Moraxella catarrhalis; conditions: for MIC against M. catarrhalis: 96-well plate, 37° C., 10 h; for MIC: M. catarrhalis
Outline: as §1

[6] = system: E. coli DH5α; test: Antibacterial activity: MIC and growth curve against E. coli DH5α in 96-well plate; conditions: minimal inhibitory concentration against E. coli DH5α; 96-well plate, 5×10^5 CFU/mL, 37° C., judged after 8 h
Outline: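 Log-phase DH5α (OD600 about 0.5, 37° C, 185 rpm in LB) was pelleted, resuspended in fresh LB and seeded at 5×10^5 CFU/mL with recombinant protein at 50, 25 and 12.5 μg/mL (two-fold series), in triplicate. Plates were shaken at 175 rpm, 37° C, and OD600 was read every 30 min. MIC was the lowest concentration with no growth.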

[7] = system: Proteus vulgaris; test: MIC against Gram-negative bacteria: Proteus vulgaris; conditions: for MIC against P. vulgaris: 96-well plate, 37° C., 10 h; for MIC: P. vulgaris
Outline: as §1

[8] = system: Klebsiella pneumonia; test: MIC against Gram-negative bacteria: Klebsiella pneumonia; conditions: for MIC against K. pneumonia: 96-well plate, 37° C., 10 h; for MIC: K. pneumonia
Outline: as §1

[9] = system: Citrobacter diversus; test: MIC against Gram-negative bacteria: Citrobacter diversus; conditions: for MIC against C. diversus: 96-well plate, 37° C., 10 h; for MIC: C. diversus
Outline: as §1

[10] = system: Pseudomonas aeruginosa; test: MIC against Gram-negative bacteria: Pseudomonas aeruginosa; conditions: for MIC against P. aeruginosa: 96-well plate, 37° C., 10 h; for MIC: P. aeruginosa
Outline: as §1

[11] = system: E. coli BL21; test: MIC against Gram-negative bacteria: E. coli BL21; conditions: for MIC against E. coli BL21: 96-well plate, 37° C., 10 h
Outline: as §1

[12] = Enterobacter cloacae, 5×10^5 CFU/mL
[13] = Proteus mirabilis, 5×10^5 CFU/mL
[14] = Aeromonas hydrophila, 5×10^5 CFU/mL
[15] = Serratia marcescens, 5×10^5 CFU/mL
[16] = Moraxella catarrhalis, 5×10^5 CFU/mL
[17] = Proteus vulgaris, 5×10^5 CFU/mL
[18] = Klebsiella pneumonia, 5×10^5 CFU/mL
[19] = Citrobacter diversus, 5×10^5 CFU/mL
[20] = Pseudomonas aeruginosa, 5×10^5 CFU/mL
[21] = E. coli BL21, 10 h cultivation at 37° C.
[22] = 10 h cultivation at 37° C., 5×10^5 CFU/mL, two-fold serial dilution

PRT527 (CPCPHTNSFATGCVVNGGDVRCSCKAGYTGTQCERCAPGYFGNPQKFGGSCQP; listed as Homo sapiens)
MIC against E. cloacae ([1]; 5×10^5 CFU/mL): 25 µg/mL | MIC against P. mirabilis ([2]; 5×10^5 CFU/mL): 25 µg/mL | MIC against A. hydrophila ([3]; 5×10^5 CFU/mL): 50 µg/mL | MIC against S. marcescens ([4]; 5×10^5 CFU/mL): 25 µg/mL | MIC against M. catarrhalis ([5]; 5×10^5 CFU/mL): 12.5 µg/mL | MIC [6]: 50 µg/mL | MIC against P. vulgaris ([7]; 5×10^5 CFU/mL): 50 µg/mL | MIC against K. pneumonia ([8]; 5×10^5 CFU/mL): 12.5 µg/mL | MIC against C. diversus ([9]; 5×10^5 CFU/mL): 25 µg/mL | MIC against P. aeruginosa ([10]; 5×10^5 CFU/mL): 50 µg/mL | MIC against E. coli BL21 ([11]; 5×10^5 CFU/mL): 12.5 µg/mL

PRT1202 (GYDFCSERHNCMENSICRNLNDRAVCSCRDGFRALREDNAYCE; listed as Homo sapiens)
MIC against E. cloacae [1, 12]: 12.5 µg/mL | MIC against P. mirabilis [2, 13]: 12.5 µg/mL | MIC against A. hydrophila [3, 14]: 50 µg/mL | MIC against S. marcescens [4, 15]: 50 µg/mL | MIC against M. catarrhalis [5, 16]: 50 µg/mL | MIC [6]: 50 µg/mL | MIC against P. vulgaris [7, 17]: 25 µg/mL | MIC against K. pneumonia [8, 18]: 50 µg/mL | MIC against C. diversus [9, 19]: 12.5 µg/mL | MIC against P. aeruginosa [10, 20]: 25 µg/mL | MIC against E. coli BL21 ([11]; E. coli BL21, 5×10^5 CFU/mL): 12.5 µg/mL

PRT917 (DVNECGQKPGLCRHGGTCHNEVGSYRCVCRATHTGPNCE; listed as Homo sapiens)
MIC ([1]; 10 h cultivation at 37° C.): 50 µg/mL | MIC ([2]; 10 h cultivation at 37° C.): 25 µg/mL | MIC ([3]; 10 h cultivation at 37° C.): 25 µg/mL | MIC ([4]; 10 h cultivation at 37° C.): 25 µg/mL | MIC ([5]; 10 h cultivation at 37° C.): 50 µg/mL | MIC [6]: 25 µg/mL | MIC ([7]; 10 h cultivation at 37° C.): 25 µg/mL | MIC ([8]; 10 h cultivation at 37° C.): 25 µg/mL | MIC ([9]; 10 h cultivation at 37° C.): 12.5 µg/mL | MIC ([10]; 10 h cultivation at 37° C.): 12.5 µg/mL | MIC [11, 21]: 50 µg/mL

PRT507 (CICYGHARACPLDPATNKSRCECEHNTCGDSCDQCCPGFHQKPWRAGTFLTKTECEA; listed as Homo sapiens)
MIC against E. cloacae ([1]; 5×10^5 CFU/mL): 12.5 µg/mL | MIC against P. mirabilis ([2]; 5×10^5 CFU/mL): 12.5 µg/mL | MIC against A. hydrophila ([3]; 5×10^5 CFU/mL): 50 µg/mL | MIC against S. marcescens ([4]; 5×10^5 CFU/mL): 25 µg/mL | MIC against M. catarrhalis ([5]; 5×10^5 CFU/mL): 50 µg/mL | MIC [6]: 12.5 µg/mL | MIC against P. vulgaris ([7]; 5×10^5 CFU/mL): 50 µg/mL | MIC against K. pneumonia ([8]; 5×10^5 CFU/mL): 50 µg/mL | MIC against C. diversus ([9]; 5×10^5 CFU/mL): 12.5 µg/mL | MIC against P. aeruginosa ([10]; 5×10^5 CFU/mL): 12.5 µg/mL | MIC against E. coli BL21 ([11]; 5×10^5 CFU/mL): 50 µg/mL

PRT1277 (ETCAVNNGGCDSKCHDAATGVHCTCPVGFMLQPDRKTCK; listed as Homo sapiens)
MIC against E. cloacae [1, 12]: 12.5 µg/mL | MIC against P. mirabilis [2, 13]: 12.5 µg/mL | MIC against A. hydrophila [3, 14]: 50 µg/mL | MIC against S. marcescens [4, 15]: 12.5 µg/mL | MIC against M. catarrhalis [5, 16]: 25 µg/mL | MIC [6]: 12.5 µg/mL | MIC against P. vulgaris [7, 17]: 25 µg/mL | MIC against K. pneumonia [8, 18]: 50 µg/mL | MIC against C. diversus [9, 19]: 12.5 µg/mL | MIC against P. aeruginosa [10, 20]: 12.5 µg/mL | MIC against E. coli BL21 ([11]; E. coli BL21, 5×10^5 CFU/mL): 50 µg/mL

PRT1062 (LQGNCSRLGCQHHCVPTLDGPTCYCNSSFQLQADGKTCK; listed as Homo sapiens)
MIC E. cloacae [1, 22]: 25 µg/mL | MIC P. mirabilis [2, 22]: 12.5 µg/mL | MIC A. hydrophila [3, 22]: 25 µg/mL | MIC S. marcescens [4, 22]: 50 µg/mL | MIC M. catarrhalis [5, 22]: 25 µg/mL | MIC [6]: 25 µg/mL | MIC P. vulgaris [7, 22]: 25 µg/mL | MIC K. pneumonia [8, 22]: 12.5 µg/mL | MIC C. diversus [9, 22]: 50 µg/mL | MIC P. aeruginosa [10, 22]: 25 µg/mL | MIC E. coli BL21 [11, 22]: 50 µg/mL

PRT1019 (NLDDCIAATCAPGSTCIDRVGSFSCLCPPGRTGLLCH; listed as Homo sapiens)
MIC ([1]; 10 h cultivation at 37° C.): 50 µg/mL | MIC ([2]; 10 h cultivation at 37° C.): 50 µg/mL | MIC ([3]; 10 h cultivation at 37° C.): 12.5 µg/mL | MIC ([4]; 10 h cultivation at 37° C.): 25 µg/mL | MIC ([5]; 10 h cultivation at 37° C.): 12.5 µg/mL | MIC [6]: 12.5 µg/mL | MIC ([7]; 10 h cultivation at 37° C.): 12.5 µg/mL | MIC ([8]; 10 h cultivation at 37° C.): 25 µg/mL | MIC ([9]; 10 h cultivation at 37° C.): 50 µg/mL | MIC ([10]; 10 h cultivation at 37° C.): 12.5 µg/mL | MIC [11, 21]: 50 µg/mL
